The numbers were not newly measured in patent publication US11878071B2, “Product for dyeing keratinous material, containing aminosilicone, a chromophoric compound, preservative and a fatty constituent” (Henkel AG & Co. KGaA, priority 2019, dated 2024), which cites them from elsewhere.

For this series the following is noted: 25° C.
Consider `O=S(=O)([O-])c1ccc(N=Nc2c(O)ccc3ccccc23)cc1.[Na+]` [Acid Orange 7, sodium salt of 4-[(2-hydroxy-1-naphthyl)azo]benzene sulphonate], for which the solubility in water entry is recorded as “more than 7 g/L”.

As for `O=C([O-])c1c(Cl)c(Cl)c(Cl)c(Cl)c1-c1c2c(Br)cc(=O)c(Br)c-2oc2c(Br)c(O)cc(Br)c12.O=C([O-])c1c(Cl)c(Cl)c(Cl)c(Cl)c1-c1c2c(Br)cc(=O)c(Br)c-2oc2c(Br)c(O)cc(Br)c12.[Na+].[Na+]` [Acid Red 92, disodium salt of 3,4,5,6-tetrachloro-2-(1,4,5,8-tetrabromo-6-hydroxy-3-oxoxanthen-9-yl)benzoic acid], the solubility in water entry was “greater than 10 g/L”.

For the compound `O=C([O-])C1=NN(c2ccc(S(=O)(=O)[O-])cc2)C(=O)C1N=Nc1ccc(S(=O)(=O)[O-])cc1.[Na+].[Na+].[Na+]` (centres unmarked) [Acid Yellow 23, trisodium salt of 4,5-dihydro-5-oxo-1-(4-sulfophenyl)-4-((4-sulfophenyl)azo)-1H-pyrazole-3-carboxylic acid], the “solubility in water” value is “highly soluble in water”.

As for `CCN(Cc1cccc(S(=O)(=O)[O-])c1)c1ccc(C(=C2C=CC(=[N+](CC)Cc3cccc(S(=O)(=O)[O-])c3)C=C2)c2ccccc2S(=O)(=O)[O-])cc1.[Na+].[Na+]` [Acid Blue 9], the solubility in water entry is “more than 20 % by weight”.

As to `Nc1cc(S(=O)(=O)[O-])cc2cc(S(=O)(=O)[O-])c(N=Nc3ccccc3)c(O)c12.[Na+].[Na+]` [Acid Red 33, diantrium salt of 5-amino-4-hydroxy-3-(phenylazo)-naphthalene-2,7-disulphonate], the solubility in water is 2.5 g/L.
